Assay results reported in patent US6077872A (priority 1998, dated 2000).
Entries after “also recorded” stand apart in the source; their conditions may differ. Like-named read-outs stand apart in the source and are kept apart here.

Key:
[1] = system: ovariectomized rats with osteoporosis; experiment: Test II: dry femur weight, ash weight and calcium content in ovariectomized rats; details: for ash weight: model-control 282.3 ± 30.5; for calcium content: model-control 341.9 ± 43.9; for dry femur weight: model-control 493.4 ± 28.1
Description: Female rats at the age of 3 months were excised of bilateral ovaries under sterilized condition, and were then fed low-calcium diet and offered with deionized water for 75 days, thus made an osteoporosis model.
Female 3-month-aged rats which had been excised of bilateral ovaries under sterilized condition were fed for a week until their wound was cured. Seventy healthy rats were selected and divided randomly into five groups of 14 rats. […] Group 1-5 were administered one time per day and 6 times per week and were also fed low-calcium diet and de-ionized water. The test period was 75 days. […] The bilateral femurs of rats were stripped off and stored in refrigerator. […] The right femur was stored for analysis of Ca content in femur.
After pulled off soft tissue, the right femur was dried for 5 hours in oven at the temperature of 120° C. until its weight kept a constant (dry weight), then the product was baked for 6 hours in muffle furnace at the temperature of 800° C. until the weight of the product kept a constant which was the ash weight, namely the total amount of inorganic salts. After part of the ash was resolved in dilute hydrochloride, the calcium content of ash was measured by the method of EDTA titration. All data was expressed as X±SD(n). The significance of differences between groups were assessed using the "T-test" method of two groups of small specimen.

preschool children = details: for children having normal BMDs: groups I and II
Description: Seventy 3-6 years old healthy children whose bone mineral density were medium-lower at a central kindergarten in the suburban county of Beijing were selected as subjects, wherein there are 13 boys and 57 girls. All were healthy children who didn't have any metabolic diseases, liver or kidney diseases, bone wounds and abnormal diseases.
Double blind method was employed during the observation. Every person was administered calcium preparation or placebo twice a day in a dosage of 1 bag each time. […] Group IV, established as blank-control group, was administered placebo which didn't contain calcium. All the above oral preparations were provided by Beijing Juneng Asian-Pacific Life Science Research Center.
(1) Bone mineral density was measured before the test and 1.5 months and 3 months later after the administration of Ca supplements.
The bone mineral density of radius in non-preferred hand was measured at the 1/3 point near the farther-end by a Model BMD400 Single-Photon absorptiometry produced conjointly by Institute of Atomic Energy, Ministry of Nuclear Industry, China and Institute of Broadcasting, Beijing, to obtain mean mineral bone density (BMD, g/cm^2). Each point was scanned twice with a scanning speed of 0.5 mm/sec.
All data was analyzed with a SAS statistical software package.

rickets-babies = system: rickets-babies
Description: Fourty rickets-babies at the age of 3-10 months were randomly divided into 2 groups of 20 babies each. […] Test group II, namely the calcium carbonate group, were administered orally calcium carbonate twice a day in a dosage of one bag each time.
(2) Biochemical examinations of blood. Venous blood of rickets-baby was sampled before and after the beginning of test and serum Ca, P and AKP level were measured and the product of [Ca]×[P] was calculated.
(3) Data processing: All data was statistically analyzed using the method of direct calculation of probability, grouping t-test and pairing t-test.
Considering the difficulty in sampling blood from rickets-babies during the test operation, blood sampling was not performed at the second week after the beginning of the test. Blood sampling was only performed before the test and at the fourth week after the beginning of the test.

[2] = Solubility of calcium L-threonate; assay type: physicochemical
rickets-mice = experiment: Preventing rickets in younger mice: serum Ca, AKP, P; assay type: in vivo, mice of Kunming species; details: for serum Ca / serum P / serum AKP (in Bessey-Loury unit): 60 days; for serum Ca: model 1.55 ± 0.42; for serum P: model 2.23 ± 0.52; for serum AKP (in Bessey-Loury unit): model 101 ± 34
Description: The mice were bred for 60 days under conditions of avoiding light around-the-clock, at a temperature of 20-25° C. and a relative humility of 40-60% while the normal-control group mice were fed ordinary diet and water and were placed in non-dark room.
The low-calcium diet used in this test was the same as that in Test II but VD in the vitamin mixture was replaced by glucose.
Some weanling mice were placed in dark room and fed VD -deficient low-calcium diet and drunk de-ionized water for 60 days, thus a ricket model of baby mice was prepared. While other weanling mice were placed in non-dark room and fed ordinary diet and drunk tap water for 60 days, these mice were established as normal-control group.

ovariectomized rats = details: for serum Ca / serum P / serum Tr-ACP (in Bessey-Loury unit) / serum AKP (in Bessey-Loury unit): 75 days; for serum Ca: model-control 1.40 ± 0.72; for serum P: model-control 1.91 ± 0.34; for serum Tr-ACP (in Bessey-Loury unit): model-control 8.4 ± 2.8; for serum AKP (in Bessey-Loury unit): model-control 50.3 ± 15
Description: (3) Pure synthetic low-calcium diet was formulated by mixing 40% fine wheat flour, 40% maize flour, 10% tyroprotein, 5% peanut oil, 3% AIN-76 mixed salts, 1% AIN-76 mixed vitamins, 1% cellulose and 0.3% DL-methionine, in which the calcium salt in AIN-76 mixed salts was replaced by glucose, and this preparation contains 64 mg calcium/100 g.
The test period was 75 days.
Serum Ca, P and AKP were measured by a 4010 Automatic Biochemical Analyzer. Serum Ca was determined by calorimetric method using methylthymol blue. Serum P was determined by Mono-Reagent Method. Alkaline phosphatase was determined by method of disodium p-nitrophenylphosphonate (AKP) The tartaric-resistant acidic phosphatase (Tr-ACP) mineral was determined by Piedra procedure. All above reagent-box were available from the Clinical Chemicals Sub-plant of Beijing Chemical Plant.

in vivo = details: dog, po, 200 mg/kg
[3] = after four weeks of Ca-supplementing

## O=C(O)[C@H](O)[C@@H](O)CO [calcium L-threonate]
[1]; 100 mg element calcium/kg/d
  ash weight: 308.5 ± 11.4 mg
  calcium content: 387.8 ± 91.9 mg/g dry weight
  dry femur weight: 517 ± 21.8 mg
[1]; 200 mg element calcium/kg/d
  ash weight: 325.3 ± 23.5 mg
  calcium content: 455.1 mg/g dry weight
  dry femur weight: 553.0 ± 38.1 mg
[1]; 300 mg element calcium/kg/d
  ash weight: 332.4 ± 13.0 mg
  calcium content: 445.7 mg/g dry weight
  dry femur weight: 546.6 ± 22.8 mg
[1]; rat, in vivo
  loss of bone matrix (in words): retard the loss of bone matrix; also recorded: markedly control and inhibit the loss of bone matrix
Preschool children; 2 bags/day of 150 mg element calcium, 1.5 month, before test 0.379 (threonate), 0.369 (carbonate)
  bone mineral density: 0.424 ± 0.038 g/cm^2
Preschool children; 2 bags/day of 150 mg element calcium, 1.5 months
  extent of BMDs' increase: 11.87%
Preschool children; 2 bags/day of 150 mg element calcium, 3 month, before test 0.379 (threonate), 0.369 (carbonate)
  bone mineral density: 0.467 ± 0.027 g/cm^2
Preschool children; 2 bags/day of 200 mg element calcium, 1.5 month, before test 0.362 ± 0.026
  bone mineral density: 0.414 ± 0.027 g/cm^2
Preschool children; 2 bags/day of 200 mg element calcium, 1.5 months
  extent of BMDs' increase: 14.36%
Preschool children; 2 bags/day of 200 mg element calcium, 3 month, before test 0.362 ± 0.026
  bone mineral density: 0.460 ± 0.020 g/cm^2
Preschool children; 2 bags/day of 200 mg element calcium, 3 months
  extent of BMDs' increase: 25.41%
Preschool children; after 3 months
  fraction of children whose BMD reached the normal level: about 2/3
Preschool children; 1.5 months
  children having normal BMDs: about 12%
Preschool children; 3 months
  children having normal BMDs: ~72%
rickets-babies; [3]
  percentage of babies whose AKP reached the normal range: 90%
  percentage of babies whose [Ca] × [P] reached the normal range: 100%
  percentage of babies whose serum P reached the normal range: 100%
rickets-babies; before and after the test, P>0.05
  serum Ca change (in words): no significant variation
rickets-babies; four weeks
  serum P and AKP after test versus normal range (in words): raise the indexes to the normal range of value
rickets-babies; four weeks after, before 3.19 ± 0.25 (threonate), 3.12 ± 0.20 (carbonate)
  serum P: 4.50 ± 0.26
rickets-babies; four weeks after, before 10.49 ± 0.39 (threonate), 10.51 ± 0.47 (carbonate)
  serum Ca: 10.65 ± 0.35
rickets-babies; four weeks after, before 33.4 ± 2.47 (threonate), 33.83 ± 2.17 (carbonate)
  [Ca] × [P]: 47.34 ± 3.15
rickets-babies; four weeks after, before 235.95 ± 7.89 (threonate), 235.25 ± 7.37 (carbonate)
  AKP: 203.75 ± 11.46
[2]; alcohol, ether, chloroform
  solubility in alcohol, ether and chloroform: not in alcohol, ether and chloroform
[2]; water
  solubility in water: can be solved in water
rickets-mice; 200 mg calcium element
  serum Ca: 2.33 ± 0.82 mmol/L
  serum P: 1.52 ± 0.45 mmol/L
  serum AKP (in Bessey-Loury unit): 59.3 ± 14 U/L
rickets-mice; 300 mg calcium element
  serum Ca: 2.17 ± 0.82 mmol/L
  serum P: 1.35 ± 0.34 mmol/L
  serum AKP (in Bessey-Loury unit): 43.1 ± 14 U/L
rickets-mice; high and low dosage
  serum Ca effect (in words): approximate to that of the normal-control group but were much higher than those of the model group
rickets-mice; mouse, in vivo
  serum AKP effect (in words): much lower than those of the model group
Ovariectomized rats; 100 mg element calcium/kg/d
  serum Ca: 1.60 ± 0.75 mmol/L
  serum P: 2.08 ± 0.66 mmol/L
  serum Tr-ACP (in Bessey-Loury unit): 8.8 ± 1.8 U/L
  serum AKP (in Bessey-Loury unit): 48.7 ± 8.0 U/L
Ovariectomized rats; 200 mg element calcium/kg/d
  serum Ca: 2.35 ± 0.35 mmol/L
  serum P: 1.87 ± 0.58 mmol/L
  serum Tr-ACP (in Bessey-Loury unit): 7.9 ± 2.4 U/L
  serum AKP (in Bessey-Loury unit): 41.4 ± 14 U/L
Ovariectomized rats; 300 mg element calcium/kg/d
  serum Ca: 2.30 ± 0.75 mmol/L
  serum P: 1.88 ± 0.58 mmol/L
  serum Tr-ACP (in Bessey-Loury unit): 7.2 ± 2.1 U/L
  serum AKP (in Bessey-Loury unit): 38.2 ± 10 U/L
Ovariectomized rats; chronic feeding
  AKP and Tr-ACP effect (in words): might decrease the AKP and Tr-ACP levels in serum
Ovariectomized rats; long-time feeding
  serum Ca effect (in words): markedly raise the serum calcium level
Ovariectomized rats; rat, in vivo
  blood P effect (in words): no evidence
In vivo
  Tmax: 1.21 h
  concentration at 0.5 h: 23100 ± 2680 ng/mL
  concentration at 1 h: 35900 ± 4410 ng/mL
  concentration at 2 h: 74040 ± 500 ng/mL
  concentration at 3 h: 46000 ng/mL
  concentration at 4 h: 17200 ng/mL
  concentration at 6 h: 9990 ng/mL
  concentration at 8 h: 4660 ng/mL
  concentration at 12 h: 2800 ng/mL
  concentration at 16 h: 4300 ng/mL
  concentration at 24 h: 3990 ng/mL
  half-life: 3.57 h
